According to US20200326333A1, “DIAGNOSIS AND TREATMENT OF AUTOIMMUNE DISEASES” (OP-T LLC, priority 2019, published 2020):

What was measured:
[1] = test system: integrins from CD4hi cells (CD4+CD40−); experiment: KGYY15 immunoprecipitation with western blot, CD4hi cells; assay type: binding, mouse; details: αL more prominently from autoimmune NOD and αD from control Balb/c cells
From the text: (§1) FIG. 10A, FIG. 10B, FIG. 10C-1, FIG. 10C-2, FIG. 10D, FIG. 10E, FIG. 10F, FIG. 10G, FIG. 10H-1, FIG. 10H-2, FIG. 10I, FIG. 10J-1, FIG. 10J-2, and FIG. 10J-3 provide blots, tables, graphs, charts, and plots related to additional biomarkers, receptors, and peptides that may bind thereto. The blots of FIG. 10A, FIG. 10B, FIGS. 10C-1, 10C-2 and FIG. 10D provide immunoprecipitation results of western blots. […] FIG. 10E provides a table of when KGYY15 eluates from mouse PBMR, MHCII+, CD4hi or CD4lo cells in protein sequencing, for integrins and proteins listed in FIG. 10E. FIG. 10F provides results of a western blot when 3 different CD40 antibodies were used in immunoprecipitations on cells that had been incubated with mKGYY15-biotin prior to lysis. FIG. 10H-1 and FIG. 10H-2, FIG. 10I, and FIG. 10J-1, FIG. 10J-2, and FIG. 10J-3 provide additional binding tests and studies that were done regarding peptides of KGYY-4, KGYY-6, and KGYY6-Val.

[2] = test system: integrins from CD4lo cells (CD4loCD40+; Th40); experiment: KGYY15 immunoprecipitation with western blot, CD4lo cells; assay type: binding, mouse
From the text: as §1

How did the “integrins immunoprecipitated from CD4hi cells” value [1] turn out when “VLQWAKKGYYTMKSN [KGYY15, 15-mer CD154-derived peptide around the KGYY core]” was run?
Its value is “immunoprecipitated primarily αL, αD and β2”.

And the β3 immunoprecipitation ([2]; cell population not stated)?
Its β3 immunoprecipitation is “not β3”.

And the “integrins immunoprecipitated from CD4lo cells” value ([2]; more prominently from autoimmune NOD cells than from control Balb/c cells)?
The value was “immunoprecipitated primarily αM, αD and β2”.

And the CD11a immunoprecipitation ([2]; several differentially glycosylated (presumably) bands)?
Its CD11a immunoprecipitation is “immunoprecipitated but only from NOD CD4lo cells”.
